Results reported in patent US20250064763A1, “METHODS OF TREATMENT OF PRIMARY BILIARY CHOLANGITIS” (Ipsen Pharma, priority 2023, published 2025).

Legend:
patients with PBC = conditions: cited from earlier work
subjects with PBC = test: Clinical study of elafibranor, biochemical markers in plasma; conditions: human, in vivo

| SMILES | effect on pruritus (patients with PBC; phase III study, OCA groups compared to placebo) | liver injury (patients with PBC; post marketing reports, PBC patients with compensated or decompensated cirrhosis) | biochemical markers in the plasma (subjects with PBC) |
| --- | --- | --- | --- |
| CC[C@H]1[C@@H](O)[C@@H]2[C@H](CC[C@]3(C)[C@@H]([C@H](C)CCC(=O)O)CC[C@@H]23)[C@@]2(C)CC[C@@H](O)C[C@@H]12 [OCA, obeticholic acid] | exacerbate pruritus | led to hepatic decompensation and liver failure | – |
| CSc1ccc(C(=O)/C=C/c2cc(C)c(OC(C)(C)C(=O)O)c(C)c2)cc1 [elafibranor] | – | – | relevant reduction |
